Active and inactive are the calls of the source.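 Rule for the calls: active = maximal inhibition of USP17 at or above 30% in the confirmation dose-response, a value not among the printed readouts; inactive = the rest.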
biological target: Ubiquitin carboxyl-terminal hydrolase 17-like protein 5 (Homo sapiens) (UniProt A8MUK1); test: ubiquitin-specific protease 17 inhibitors, concentration series, biochemical, verification of primary actives (AID 1645864); settings: purified USP17, ubiquitin-rhodamine cleavage fluorescence, 3 h
Sequence (A8MUK1 whole entry, looked up): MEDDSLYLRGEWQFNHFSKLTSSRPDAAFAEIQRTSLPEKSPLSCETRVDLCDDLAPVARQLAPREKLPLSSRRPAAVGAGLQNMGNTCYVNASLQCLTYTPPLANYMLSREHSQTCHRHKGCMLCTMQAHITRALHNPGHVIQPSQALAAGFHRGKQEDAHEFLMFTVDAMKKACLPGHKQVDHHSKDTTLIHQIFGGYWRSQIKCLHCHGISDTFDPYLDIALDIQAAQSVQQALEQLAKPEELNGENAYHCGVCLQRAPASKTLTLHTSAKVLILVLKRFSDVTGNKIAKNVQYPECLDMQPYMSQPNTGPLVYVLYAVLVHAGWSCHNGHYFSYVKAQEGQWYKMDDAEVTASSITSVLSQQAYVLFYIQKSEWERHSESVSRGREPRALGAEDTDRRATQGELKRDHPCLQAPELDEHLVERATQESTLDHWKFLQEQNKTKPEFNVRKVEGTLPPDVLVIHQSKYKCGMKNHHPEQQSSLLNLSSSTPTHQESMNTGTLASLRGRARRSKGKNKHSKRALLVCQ

| Structure (SMILES) | IC50 |
| --- | --- |
| CCCC(=O)c1c[nH]c(C(=O)NCc2ccc(F)cc2)c1 | 14.5 µM |
| COc1ccc(C2CC(c3ccccc3)N(C(=O)C3CC3)c3ncnn32)cc1 (centres undefined) | > 50 µM (inactive) |
| COc1ccc(-n2ccc(=O)c(-c3nc(-c4ccccc4F)no3)n2)cc1OC | > 50 µM (inactive) |
| COc1cc([C@@H]2c3cc4c(cc3C[C@@H]3COC(=O)[C@H]32)OCO4)cc(OC)c1OC | 17.3 µM |
| O=C(Nc1ccc2c(c1)OCO2)C1CCN(Cc2nc3ccccc3s2)CC1 | > 50 µM (inactive) |
| O=C(CSc1ncnc2c1oc1ccccc12)NC1CCCC1 | 26 µM |
| Cc1ccc2c(c1)[C@]1(C(=O)N2)[C@@H]2C(=O)N(c3cccc(C(F)(F)F)c3)C(=O)[C@@H]2C2CCCN21 (some centres undefined) | > 50 µM (inactive) |
| COc1ccc(-c2nc(-c3nnn(Cc4ccc(F)cc4)c3C)no2)c(OC)c1 | 6.53 µM |
| O=C1CC(c2ccco2)Cc2[nH]c(=O)c(-c3nc(-c4ccc(Cl)cc4)cs3)cc21 (centres undefined) | > 50 µM (inactive) |
| O=C(Cn1nc2c3c4c(sc3ncn2c1=O)CCCCC4)Nc1ccc(Cl)cc1F | 2.08 µM |
| CCc1c(Cl)c(O)c(Cl)c(O)c1C(=O)O[C@H]1C(C)O[C@@H](OC/C2=C\C=C\CC(O)/C(C)=C/C(CC)C(O[C@@H]3OC(C)(C)[C@H](O)C(OC(=O)C(C)C)[C@@H]3O)/C(C)=C/C(C)=C/CC(C(C)O)OC2=O)[C@@H](OC)C1O (some centres undefined) | > 50 µM (inactive) |
| Cc1c(C)n(-c2ccc(Br)cn2)c2ncnc(NCCCO)c12 | 49.9 µM |
| COc1ccc2cc3c(nc2c1)OC(=O)N(CCc1cccc(F)c1)C3 | 0.0729 µM |
| Cn1c(COc2ccccc2)nnc1SCC(=O)Nc1ccc(N2CCOCC2)cc1 | 23.9 µM |
| Cn1c(SCc2ccccc2)nnc1-c1csc(-c2ccccc2)n1 | 39 µM |
| Cn1c(=O)[nH]c(=O)c2c1nc1n(CCc3ccccc3)c(-c3ccccc3)cn21 | 33.1 µM |
| Cc1noc(-c2cccn(Cc3cccc(C(F)(F)F)c3)c2=O)n1 | > 50 µM (inactive) |
| O=S1(=O)NC(=NCCc2ccc(Cl)cc2Cl)c2ccccc21 | 36.4 µM |
| Cc1cccc(OCCn2c(CCNC(=O)C3CCCCC3)nc3ccccc32)c1 | 28.6 µM |
| CCN1C[C@@H]2C[C@]2(c2ccccc2OC)C(=O)c2ncccc21 | > 50 µM (inactive) |
| Cc1ccc(-c2cn(CC(=O)N3CCN(c4ccccn4)CC3)c(=O)o2)cc1 | 13 µM |
| CC(=O)c1cccc(NC(=O)c2ccc(N3CCCCC3)nn2)c1 | 43 µM |
| CN1CCN(c2ncnc3c2oc2ccc(Cl)cc23)CC1 | > 50 µM (inactive) |
| CCN1C(SCc2ccccc2F)=NS(=O)(=O)c2ccccc21 | > 50 µM (inactive) |
| CC1=C(c2ccc(C)c(C)c2)S(=O)(=O)NC1=NCC(=O)NCCCc1ccccc1 | 12.5 µM |
| Cc1c(CC(=O)Nc2nn[nH]n2)c(=O)oc2cc3c(cc12)CCC1(CCCCC1)O3 | > 50 µM (inactive) |
| COc1ccc(C(=O)Nc2cc(-c3ccccn3)no2)cn1 | > 50 µM (inactive) |

Further lines, results first:

| IC50 | Structure (SMILES) |
| --- | --- |
| 34.1 µM | Cc1cccc(-n2nc(C)c3c2NC(=O)CC3C(=O)c2cc3ccccc3o2)c1 (centres undefined) |
| > 50 µM (inactive) | CC(=O)c1ccc(NC(=O)/C(=C/c2ccco2)n2nnnc2-c2ccccc2)cc1 |
| 2.2 µM | O=C(CCCn1c(=O)c2ccccc2n(CC(=O)NCc2ccccc2Cl)c1=O)NCc1ccc2c(c1)OCO2 |
| > 50 µM (inactive) | CCN1C(=O)c2cccnc2Sc2cc(NC(=O)c3ccc(Cl)s3)ccc21 |
| 43.6 µM | O=S(=O)(Nc1ccc(O)cc1)c1ccc2oc3ccc(S(=O)(=O)Nc4ccc(O)cc4)cc3c2c1 |
| 3.29 µM | O=C(NCc1ccc(-c2nc3cnccc3o2)cc1)c1cc2ccccc2o1 |
| 0.0527 µM | CCc1nc(SCC(=O)Nc2ccccc2Cl)c2oc3ccccc3c2n1 |
| 6.17 µM | Cc1cccc(NC(=O)CSc2ccc(-n3cnc(-c4ccccc4)c3)nn2)c1 |
| 26.8 µM | O=C(Cn1c(=O)c2sccc2n(Cc2ccc([N+](=O)[O-])cc2)c1=O)NCCc1ccccc1 |
| 29.2 µM | COc1ccccc1CNC(=O)CCCn1c(=O)c2ccccc2n(CC(=O)N2CCN(c3ccccc3)CC2)c1=O |
| 23.7 µM | CSc1ccc(CNC(=O)CC2CCN(S(=O)(=O)c3ccc(C)cc3)CC2)cc1 |
| 2.03 µM | Cc1ccc2c(c1)N(C)C(=O)c1cc(NC(=O)c3ccc(F)cc3)ccc1O2 |
| 2.51 µM | Cc1ccc(NC(=O)c2cnc3c(c2)c(=O)n(C)c(=O)n3C)cc1 |
| 12.6 µM | Cc1cc(N2CCN(c3ncccn3)CC2)nc2ccc(NC(=O)/C=C/c3ccccc3Cl)cc12 |
| > 50 µM (inactive) | COCCCNC(=O)Cn1c(=O)n(Cc2ccc(C(=O)NCc3ccccc3OC)cc2)c(=O)c2ccccc21 |
| 16.1 µM | CCN(C(=O)c1cc2c(Cl)nc3ccccc3c2s1)c1ccccc1F |
| > 50 µM (inactive) | COc1cccc(NC(=O)C2CCC(CNS(=O)(=O)c3ccc4c(c3)C(C)(C)C(=O)N4C)CC2)c1 (centres undefined) |
| 27.7 µM | COc1cccc(NC(=O)C2Cc3ccccc3N2C(=O)c2ccccc2)c1 (centres undefined) |
| > 50 µM (inactive) | O=c1[nH]cccc1NS(=O)(=O)c1ccc(F)cc1 |
| 15.2 µM | Cc1cccc(C(=O)Nc2cccc(SC(C(=O)Nc3ccc(Cl)c(C(=O)O)c3)c3ccccc3)c2)c1 (centres undefined) |
| > 50 µM (inactive) | CC(C)(C)C(=O)Nc1ccc(SCc2nnc(-c3ccccc3)o2)cc1 |
| 26.4 µM | Cc1cccc(NC(=O)CN2C(=O)COc3cc(S(=O)(=O)N4CCCC4)ccc32)c1C |

— PubChem BioAssay AID1645864 (Buhrlage Lab, Dana-Farber Cancer Institute and Novartis …, 2021)
